Among the test systems are CAKI-1; EKVX; HCC 2998; HCT-15; HOP-62; M14; MDA-MB-435; MOLT-4; NCI-H226; RPMI-8226; SK-MEL-2; SNB-75; T47D; U-251; UACC-257; HOP-92; LOX IMVI; Malme-3M; NCI-H522.
Assay in all cases: growth of human tumour cells (NCI), 48 h

Values joined by “and” are separate entries in the source; they are usually repeats but may differ in a detail not shown here. Equal values may be shown once.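 Dose response: 5 concentrations. Exposure: 48 h. Format: 96-well plates. Endpoint: linear interpolation; highest concentration if not reached. GI50: concentration for 50% inhibition of growth.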 Active and inactive are the calls of the source. Cut-off read from the data, not from the text of the source: active = GI50 up to about 1.1 µM and inactive = higher.

In the case of `O=C(CP(c1ccccc1)c1ccccc1)c1cccc(C(=O)CP(c2ccccc2)c2ccccc2)c1`, the GI50 in the assay with CAKI-1 was 86.3 µM (inactive); in the assay with EKVX, 56.9 µM (inactive); in the assay with HCC 2998, 74.1 µM (inactive); in the assay on HCT-15, 49.3 µM; in the assay with HOP-62 it was 96.6 µM (inactive); with M14, 52.6 µM (inactive). Further, the GI50 with MDA-MB-435 is 45.7 µM (inactive); in the assay on MOLT-4 it was 6.75 µM (inactive); with NCI-H226 it was 66.4 µM (inactive); in the assay with RPMI-8226, 12.6 µM (inactive); in the assay on SK-MEL-2, > 100 µM (inactive); in the assay on SNB-75, 55.6 µM (inactive). Besides, the GI50 in the assay on T47D is 14.2 µM (inactive); with U-251, 58.5 µM (inactive); in the assay with UACC-257 it was 32.1 µM (inactive).
Consider `C=C/C(C)=C\CC1[C@](C)(O)CC[C@H]2C(C)(C)C(O)CC[C@]12C` (stereo partly specified), for which the GI50 in the assay on CAKI-1 is > 100 µM (inactive); in the assay on EKVX, > 100 µM (inactive); in the assay on HCT-15 it was over 100 µM; in the assay on HOP-92, > 100 µM (inactive); with LOX IMVI, > 100 µM (inactive); in the assay with M14, > 100 µM (inactive). For the same compound, the GI50 in the assay on MDA-MB-435 was > 100 µM (inactive); in the assay on MOLT-4 it was 33.8 µM (inactive); in the assay on Malme-3M, > 100 µM (inactive); with NCI-H226, > 100 µM (inactive); in the assay with NCI-H522 it was 91.4 µM (inactive); in the assay with RPMI-8226, 42.6 µM (inactive). Further, the GI50 in the assay with SK-MEL-2, in the assay with SNB-75, in the assay with U-251 and in the assay on UACC-257 was > 100 µM (inactive) each time.
As for `CC1=Nc2c(ccc3c2C(=O)c2ccccc2C3=O)NC(c2cccc3c2CCC3)C1` (stereo unspecified), the GI50 is 6.27 µM (inactive) in the assay with CAKI-1; > 100 µM (inactive) in the assay with EKVX; > 100 µM (inactive) in the assay with HCC 2998; 18.7 µM in the assay on HCT-15; > 73.8 µM (inactive) in the assay on HOP-62; > 65 µM (inactive) in the assay with HOP-92. Moreover, the GI50 was 24.2 µM (inactive) with LOX IMVI; > 92 µM (inactive) in the assay with M14; 5.11 µM (inactive) in the assay with MOLT-4; > 100 µM (inactive) with Malme-3M; > 66.2 µM (inactive) in the assay on NCI-H226; > 23.1 µM (inactive) with NCI-H522. Further, the GI50 in the assay on RPMI-8226 is > 100 µM (inactive); with SK-MEL-2, > 80.9 µM (inactive); with SNB-75, > 100 µM (inactive); in the assay on U-251 it was > 100 µM (inactive); with UACC-257 it was > 100 µM (inactive).
In the case of `C=CC(C)(C)n1cc(C2=C3OC(=O)C(c4cn(C(C)(C)C=C)c5ccccc45)=C3OC2=O)c2ccccc21`, the GI50 with CAKI-1 was > 100 µM (inactive); in the assay on EKVX, > 100 µM (inactive); in the assay with HCC 2998, > 100 µM (inactive); in the assay on HCT-15, over 100 µM; with HOP-62, > 100 µM (inactive); with HOP-92 it was > 100 µM (inactive). Also, the GI50 with LOX IMVI, in the assay on M14, in the assay on MDA-MB-435, in the assay on MOLT-4, in the assay on Malme-3M and with NCI-H226 was > 100 µM (inactive) each time. Further, the GI50 with NCI-H522, in the assay with RPMI-8226, with SK-MEL-2, with SNB-75, with U-251 and with UACC-257 was > 100 µM (inactive) each time.
For `C=CCNC1=C2C[C@@H](C)C[C@@H](OC)[C@H](OC(=O)CN)[C@H](C)/C=C(\C)[C@@H](OC(N)=O)[C@H](OC)/C=C\C=C(/C)C(=O)NC(=CC1=O)C2=O`, the GI50 in the assay with CAKI-1 is 4.6 µM (inactive); in the assay on EKVX it was 5.77 µM (inactive); with HCC 2998, 0.27 µM (active); in the assay on HCT-15 it was 3.49 µM; in the assay with HOP-62, 0.521 µM (active); in the assay on HOP-92, 3.41 µM (inactive). Further, the GI50 is 0.528 µM (active) with LOX IMVI; 0.371 µM (active) in the assay with M14; 0.418 µM (active) in the assay with MDA-MB-435; 1.21 µM (inactive) with MOLT-4; 0.456 µM (active) in the assay with Malme-3M; 0.706 µM (active) with NCI-H522. Besides, the GI50 is 3.59 µM (inactive) in the assay on RPMI-8226; 0.453 µM (active) in the assay on SK-MEL-2; 1.7 µM (inactive) in the assay with SNB-75; 1.29 µM (inactive) with U-251; 0.528 µM (active) with UACC-257.
On to `CCOC(=O)c1c(-c2ccccc2)nc2ccccc2c1O`, for which the GI50 is > 100 µM (inactive) with CAKI-1; > 100 µM (inactive) with EKVX; > 100 µM (inactive) in the assay with HCC 2998; over 100 µM in the assay with HCT-15; > 100 µM (inactive) in the assay on HOP-62; > 100 µM (inactive) in the assay with HOP-92. In addition, the GI50 in the assay on M14, in the assay on MOLT-4, with Malme-3M, in the assay with RPMI-8226, with SNB-75 and in the assay on T47D was > 100 µM (inactive) in each case. Moreover, the GI50 in the assay on U-251 and in the assay with UACC-257 was > 100 µM (inactive) in each case.
Take `CS(=O)(=O)c1ccc(NNc2cc(=O)[nH]c(=O)[nH]2)cc1`: the GI50 in the assay on CAKI-1 was > 10 µM (inactive); with HCC 2998 it was > 100 µM (inactive); with HCT-15 it was over 100 µM; in the assay with HOP-62, > 100 µM (inactive); with HOP-92, 47.8 µM (inactive); with LOX IMVI, > 100 µM (inactive). Further, the GI50 in the assay with M14 was > 100 µM (inactive); with MOLT-4 it was > 100 µM (inactive); in the assay with Malme-3M it was > 100 µM (inactive); with NCI-H226, > 100 µM (inactive); in the assay on NCI-H522, 21.7 µM (inactive); in the assay with RPMI-8226, > 100 µM (inactive). The GI50 with SK-MEL-2, in the assay on SNB-75, with T47D, in the assay on U-251 and in the assay on UACC-257 was > 100 µM (inactive) each time.
For `Cc1cccc(-n2c(C)nc3ccc(NC(=S)Nc4ccccc4)cc3c2=O)c1`, the GI50 in the assay on CAKI-1 was > 100 µM (inactive); with EKVX, 55.7 µM (inactive); in the assay on HCC 2998, 25 µM (inactive); in the assay on HCT-15, 68.5 µM; with HOP-62, > 100 µM (inactive); in the assay on LOX IMVI, 37.2 µM (inactive). The GI50 in the assay with MDA-MB-435 was 56 µM (inactive); in the assay with MOLT-4, 28.4 µM (inactive); in the assay with Malme-3M, 69.2 µM (inactive); with NCI-H226, 81.1 µM (inactive); in the assay with NCI-H522, 51.2 µM (inactive); in the assay with RPMI-8226 it was 35.2 µM (inactive). The GI50 with SK-MEL-2 was 39 µM (inactive); with SNB-75, > 100 µM (inactive); with T47D, 38 µM (inactive); in the assay with U-251 it was > 100 µM (inactive); in the assay on UACC-257, 47.6 µM (inactive).
As to `COc1ccc(-c2c(C#N)c(N)n(C3OC(CO)C(O)C(O)C3O)c(=S)c2C#N)cc1` (stereo unspecified), the GI50 with CAKI-1 was > 100 µM (inactive); in the assay with EKVX, 66.2 µM (inactive); with HCC 2998 it was > 100 µM (inactive); in the assay with HCT-15 it was over 100 µM; with HOP-62 it was > 100 µM (inactive) and 51.9 µM (inactive); in the assay with HOP-92, 20.2 µM (inactive). Besides, the GI50 is > 100 µM (inactive) and 77.4 µM (inactive) in the assay on LOX IMVI; > 100 µM (inactive) in the assay on M14; > 100 µM (inactive) and 68.2 µM (inactive) in the assay on MOLT-4; > 100 µM (inactive) in the assay with Malme-3M; > 100 µM (inactive) in the assay on NCI-H226; > 100 µM (inactive) with RPMI-8226. The GI50 is 55.8 µM (inactive) and 30.4 µM (inactive) in the assay on SK-MEL-2; > 100 µM (inactive) with SNB-75; > 100 µM (inactive) and 93.3 µM (inactive) in the assay on T47D; > 100 µM (inactive) in the assay on U-251; > 100 µM (inactive) with UACC-257.
`CSC1=N[C@H](c2ccccc2)CS1`: the GI50 is > 100 µM (inactive) in the assay on CAKI-1; > 100 µM (inactive) in the assay on EKVX; > 100 µM (inactive) in the assay on HCC 2998; over 100 µM in the assay on HCT-15; > 100 µM (inactive) with HOP-62; > 100 µM (inactive) in the assay with M14. In addition, the GI50 was > 100 µM (inactive) with MDA-MB-435; > 100 µM (inactive) in the assay with MOLT-4; > 100 µM (inactive) in the assay with RPMI-8226; > 100 µM (inactive) in the assay on SK-MEL-2; 2.8 µM (inactive) with SNB-75; > 100 µM (inactive) in the assay on T47D. Moreover, the GI50 with U-251 and in the assay with UACC-257 was > 100 µM (inactive) each time.
Consider `CCOC(=O)c1ccc(-c2ccc(Cl)cc2)[nH]1`, for which the GI50 in the assay with EKVX is 2.28 µM (inactive); with HCC 2998, > 10 µM (inactive); in the assay on HCT-15, over 10 µM; in the assay on HOP-92 it was > 10 µM (inactive); in the assay on M14, > 10 µM (inactive); in the assay on MDA-MB-435, > 10 µM (inactive). Also, the GI50 in the assay on MOLT-4 is > 10 µM (inactive); in the assay with Malme-3M it was > 10 µM (inactive); in the assay on NCI-H226 it was 8.47 µM (inactive); in the assay with NCI-H522, > 10 µM (inactive); in the assay with SK-MEL-2, > 10 µM (inactive); with SNB-75 it was > 10 µM (inactive). The GI50 in the assay with U-251 and with UACC-257 was > 10 µM (inactive) each time.
On to `Cc1ccc(C(=O)Nc2ccc(S(=O)(=O)O)c3cc(S(=O)(=O)O)cc(S(=O)(=O)O)c23)cc1NC(=O)c1cccc(N)c1`, for which the GI50 was > 100 µM (inactive) in the assay with CAKI-1; > 100 µM (inactive) in the assay on EKVX; > 100 µM (inactive) in the assay with HCC 2998; over 100 µM in the assay on HCT-15; > 100 µM (inactive) in the assay on HOP-62; > 100 µM (inactive) in the assay on M14. For the same compound, the GI50 in the assay with MOLT-4 is > 100 µM (inactive); in the assay on Malme-3M it was 1.05 µM (active); in the assay on NCI-H226 it was > 100 µM (inactive); in the assay on NCI-H522, > 100 µM (inactive); with SK-MEL-2 it was 73.8 µM (inactive); with SNB-75 it was > 100 µM (inactive). The GI50 in the assay on T47D, in the assay on U-251 and with UACC-257 was > 100 µM (inactive) each time.
